Results published in patent publication US10626115B2, “Fused pyrimidinone and triazinone derivatives containing bridged nitrogen, their process of preparation and their therapeutic uses as antifungal and/or antiparasitic agents” (UNIVERSITE DE NANTES, priority 2015, dated 2020).
Values after ≈ are worked out from the molar mass of the structure shown.

Key:
[1] = test system: fluconazole-susceptible C. albicans strain: CAAL93; test: Antifungal susceptibility, spectrofluorimetric microdilution, CAAL93; type: cell-based; details: Candida albicans, read-out: MIC values CAAL93
Protocol: (§1) Eight strains of Candida spp. with various azoles-susceptibilities were used: • One fluconazole-susceptible C. albicans strain: CAAL93 • Two fluconazole-resistant C. albicans strains: CAAL111 (efflux pump) and CAAL117 (erg11 mutations+voriconazole-resistant) • five fluconazole-resistant Candida non albicans strains: C. krusei (CAKR7, CAKR8), C. glabrata (CAGL2), C. parapsilosis s.l. (CAPA1, CAPA2).
(§2) Antifungal susceptibility was evaluated with a spectrofluorimetric microdilution method.

[2] = test system: A. fumigatus itraconazole-resistant strain ASFU23; test: Antifungal susceptibility, spectrofluorimetric microdilution, ASFU23; type: cell-based, Aspergillus fumigatus
Protocol: (§3) Eleven strains of A. fumigatus with various itraconazole susceptibility were used: • Five susceptible strains: ASFU7, ASFU35A, ASFU38A, ASFU76 and ASFU78. • Six itraconazole-resistant strains: ASFU77 (erg11 mutation), ASFU13, ASFU17, ASFU19, ASFU20, ASFU23.
(§4) Antifungal susceptibility was evaluated with a spectrofluorimetric microdilution method. MIC was the concentration that was able to inhibit 80% of fluorescence measured in the control wells.

[3] = test system: A. fumigatus itraconazole-resistant strain ASFU17; test: Antifungal susceptibility, spectrofluorimetric microdilution, ASFU17; type: cell-based, Aspergillus fumigatus; details: Aspergillus fumigatus, read-out: MIC values ASFU17
Protocol: as §3, §4

[4] = test system: A. fumigatus itraconazole-resistant strain ASFU13; test: Antifungal susceptibility, spectrofluorimetric microdilution, ASFU13; type: cell-based, Aspergillus fumigatus
Protocol: as §3, §4

[5] = test system: A. fumigatus susceptible strain ASFU7; test: Antifungal susceptibility, spectrofluorimetric microdilution, ASFU7; type: cell-based, Aspergillus fumigatus; details: Aspergillus fumigatus, read-out: MIC values ASFU7
Protocol: as §3, §4

Hela Human cell line = test: Cytotoxicity on HeLa cells; type: cell-based; details: 100 μM
Protocol: (§5) Hela Human cell line was used in view to evaluate cytotoxicity. It was evaluated with a spectrofluorimetric microdilution method. IC50 was the concentration that was able to inhibit 50% of fluorescence measured in the control wells.

[6] = test system: A. fumigatus susceptible strain ASFU76; test: Antifungal susceptibility, spectrofluorimetric microdilution, ASFU76; type: cell-based, Aspergillus fumigatus; details: Aspergillus fumigatus, read-out: MIC values ASFU76
Protocol: as §3, §4

[7] = test system: A. fumigatus itraconazole-resistant strain ASFU20; test: Antifungal susceptibility, spectrofluorimetric microdilution, ASFU20; type: cell-based, Aspergillus fumigatus
Protocol: as §3, §4

[8] = test system: fluconazole-resistant C. krusei (CAKR7); test: microbe, parasite or virus in culture; type: cell-based; details: Pichia kudriavzevii, read-out: MIC values CAKR7
Protocol: as §1, §2

[9] = test system: fluconazole-resistant C. albicans strain CAAL117 (erg11 mutations+voriconazole-resistant); test: microbe, parasite or virus in culture; type: cell-based
Protocol: as §1, §2

[10] = test system: fluconazole-resistant C. glabrata (CAGL2); test: microbe, parasite or virus in culture; type: cell-based; details: Nakaseomyces glabratus, read-out: MIC values CAGL2
Protocol: as §1, §2

[11] = test system: fluconazole-resistant C. albicans strain CAAL111 (efflux pump); test: microbe, parasite or virus in culture; type: cell-based; details: Candida albicans, read-out: MIC values CAAL111
Protocol: as §1, §2

[12] = test system: fluconazole-resistant C. krusei (CAKR8); test: microbe, parasite or virus in culture; type: cell-based; details: Pichia kudriavzevii, read-out: MIC values CAKR8
Protocol: as §1, §2

[13] = test system: A. fumigatus itraconazole-resistant strain ASFU77 (erg11 mutation); test: Antifungal susceptibility, spectrofluorimetric microdilution, ASFU77; type: cell-based, Aspergillus fumigatus; details: for MIC: Aspergillus fumigatus, read-out: MIC values ASFU77
Protocol: as §3, §4

[14] = test system: Candida albicans strain (CAAL93); test: Murine systemic candidiasis; type: in vivo; details: neutropenic Swiss mice, CAAL93 i.v., 10 mg/kg per os once a day for 5 days; for survival compared with the non-treated group: 28 days (compound 51, 14 days); for survival compared with the non-treated group / activity on fungal burden of the kidney compared to FLC: p<0.05; for fungal burden of the kidney: p<0.05 (compound 51 p<0.001)
Protocol: (§6) Transiently neutropenic female Swiss mice were used for experiments on systemic candidiasis and invasive aspergillosis.
Mice were inoculated intravenously with a Candida albicans strain (CAAL93). Treatment was administrated once a day (10 mg/kg per os) for 5 days. […] Fungal burden of the kidney was evaluated in dead animals during the experimentation or in animals sacrificed at the end of the experimentation.

[15] = test system: A. fumigatus itraconazole-resistant strain ASFU19; test: Antifungal susceptibility, spectrofluorimetric microdilution, ASFU19; type: cell-based, Aspergillus fumigatus; details: Aspergillus fumigatus, read-out: MIC values ASFU19
Protocol: as §3, §4

[16] = test system: A. fumigatus susceptible strain ASFU35A; test: Antifungal susceptibility, spectrofluorimetric microdilution, ASFU35A; type: cell-based, Aspergillus fumigatus; details: Aspergillus fumigatus, read-out: MIC values ASFU35A
Protocol: as §3, §4

[17] = test system: A. fumigatus susceptible strain ASFU38A; test: Antifungal susceptibility, spectrofluorimetric microdilution, ASFU38A; type: cell-based, Aspergillus fumigatus; details: Aspergillus fumigatus, read-out: MIC values ASFU38A
Protocol: as §3, §4

[18] = test system: A. fumigatus susceptible strain ASFU78; test: Antifungal susceptibility, spectrofluorimetric microdilution, ASFU78; type: cell-based, Aspergillus fumigatus; details: Aspergillus fumigatus, read-out: MIC values ASFU78
Protocol: as §3, §4

CRL:(WI) rats = test: Acute oral toxicity study in rats; type: in vivo
Protocol: The single-dose oral toxicity of compound 51 was performed according to the acute toxic class method (OECD 423 and Commission Regulation (EC) No 440/2008 of 30 May 2008, B.1.Tris) in CRL:(WI) rats.
Two groups of three female CRL:(WI) rats were treated with the test item at a dose level of 300 mg/kg bw (Group 1 and Group 2).
A single oral treatment was carried out by gavage for each animal after an overnight food withdrawal. Food was made available again 3 hours after the treatment. The test item was administered formulated in DMSO at a concentration of 30 mg/mL at a dose volume of 10 mL/kg bw.
Initially, three females (Group 1) were treated at a dose level of 300 mg/kg bw. As no mortality was observed, a confirmatory group (Group 2) was treated at the same dose level.
Clinical observations were performed at 30 minutes, 1, 2, 3, 4 and 6 hours after dosing and daily for 14 days thereafter. Body weight was measured on days −1, 0 and 7 and before necropsy. All animals were subjected to a necropsy and a macroscopic examination

[19] = test system: promastigote stage of a Leishmania mexicana strain; test: Anti-Trypanosomatidae activity, promastigote stage, spectrofluorimetric microdilution; type: cell-based; details: for IC50: Leishmania mexicana, promastigote stage, 50% of control growth, read-out: L. mexicana (IC50 μM)
Protocol: Compounds were evaluated on the promastigote stage of a Leishmania mexicana strain using a spectrofluorimetric microdilution method. Inhibitory concentration 50 (IC50) was the concentration that inhibited 50% of the control growth.

[20] = test system: fluconazole-resistant C. parapsilosis s.l. (CAPA1); test: microbe, parasite or virus in culture; type: cell-based; details: Lodderomyces parapsilosis, read-out: MIC values CAPA1
Protocol: as §1, §2

[21] = test system: fluconazole-resistant C. parapsilosis s.l. (CAPA2); test: microbe, parasite or virus in culture; type: cell-based; details: Lodderomyces parapsilosis, read-out: MIC values CAPA2
Protocol: as §1, §2

[22] = test system: Aspergillus fumigatus (ASFU7) spores; test: Murine invasive aspergillosis; type: in vivo; details: neutropenic Swiss mice, ASFU7 spores i.v., 10 mg/kg per os once a day for 5 days
Protocol: as §6
Mice were inoculated intravenously with Aspergillus fumigatus (ASFU7) spores.
Treatment was administrated once a day (10 mg/kg per os) for 5 days. […] Fungal burden of the kidney was evaluated in dead animals during the experimentation or in animals sacrificed at the end of the experimentation.

[23] = Cytotoxicity on HeLa cells; type: cell-based, Human; details: human, 50% inhibition of control fluorescence
Protocol: as §5

## COc1ccc(-c2cc3cnn([C@H](C)[C@](O)(Cn4cncn4)c4ccc(F)cc4F)c(=O)n3c2)cc1 [Compound 51, 3-[(1R,2R)-2-(2,4-Difluorophenyl)-2-hydroxy-1-methyl-3-(1,2,4-triazol-1-yl)propyl]-7-(4-methoxyphenyl)-3H-pyrrolo[1,2-d][1,2,4]triazin-4-one]
[1]
  MIC: < 0.001 µg/mL
[2]
  activity against ITRA-resistant isolate ASFU23, in words: active
[2]; Aspergillus fumigatus, read-out: MIC values ASFU23
  MIC: 1.92 µg/mL (≈ 3.9 µM)
[3]
  MIC: > 49 µg/mL
[4]
  activity against ITRA-resistant isolate ASFU13, in words: active
[4]; Aspergillus fumigatus, read-out: MIC values ASFU13
  MIC: 2.03 µg/mL (≈ 4.12 µM)
[5]
  MIC: 2.21 ± 0.09 µg/mL (≈ 4.49 µM)
Hela Human cell line
  cytotoxic effect at the higher concentration used: didn't show any cytotoxic effect
[6]
  MIC: 6.52 ± 0.16 µg/mL (≈ 13.2 µM)
[7]
  activity against ITRA-resistant isolate ASFU20, in words: active
[7]; Aspergillus fumigatus, read-out: MIC values ASFU20
  MIC: 3.14 µg/mL (≈ 6.38 µM)
[8]
  MIC: 0.062 ± 0.032 µg/mL (≈ 0.126 µM)
[9]; Candida albicans, read-out: MIC values CAAL117
  MIC: 0.018 ± 0.002 µg/mL (≈ 0.0365 µM)
[9]; compared with voriconazole
  fold more active than voriconazole against CAAL117: 100 fold
[10]
  MIC: 0.017 ± 0.003 µg/mL (≈ 0.0345 µM)
[11]
  MIC: < 0.001 µg/mL
[12]
  MIC: 0.081 ± 0.009 µg/mL (≈ 0.164 µM)
[13]
  MIC values against ITRA-resistant isolate carrying M220T mutation (ASFU77), in words: in the micromolar range
  MIC: 6.6 ± 0.24 µg/mL (≈ 13.4 µM)
[14]
  survival compared with the non-treated group: significant longer survival
  fungal burden of the kidney: most active
[15]
  MIC: > 49 µg/mL
[16]
  MIC: 6.08 ± 0.29 µg/mL (≈ 12.3 µM)
[17]
  MIC: 5.84 ± 0.2 µg/mL (≈ 11.9 µM)
[18]
  MIC: 6.01 ± 0.48 µg/mL (≈ 12.2 µM)
CRL:(WI) rats; female CRL:(WI) rats, single oral gavage
  acute oral LD50: above 300 mg/kg bw
CRL:(WI) rats; female, CRL:(WI), rat, in vivo, po, 14 days
  GHS ranking for acute oral exposure: Category 4
CRL:(WI) rats; rat, in vivo, po, 300 mg/kg
  body weight gains: no indication of a test item-related effect
  clinical observations: hunched back and slightly decreased activity
  mortality: did not cause mortality

## C[C@@H](n1ccc2nc(-c3ccc([N+](=O)[O-])cc3)cn2c1=O)[C@](O)(Cn1cncn1)c1ccc(F)cc1F [Compound 35, 6-[(1R,2R)-2-(2,4-Difluorophenyl)-2-hydroxy-1-methyl-3-(1H-1,2,4-triazol-1-yl)propyl]-2-(4-nitrophenyl)imidazo[1,2-c]pyrimidin-5-one]
[1]
  MIC: < 0.001 µg/mL
[5]
  MIC: 2.52 ± 0.05 µg/mL (≈ 4.97 µM)
[19]
  effectiveness against the promastigote stage of L. Mexicana, in words: effective
  IC50: 11.4 ± 1.5 µM
Hela Human cell line
  cytotoxic effect at the higher concentration used: didn't show any cytotoxic effect
[6]
  MIC: 7.45 ± 1 µg/mL (≈ 14.7 µM)
[20]
  MIC: 0.011 ± 0.003 µg/mL (≈ 0.0217 µM)
[10]
  MIC: 0.2 ± 0.06 µg/mL (≈ 0.394 µM)
[11]
  MIC: 0.007 ± 0.003 µg/mL (≈ 0.0138 µM)
[21]
  MIC: 0.004 ± 0.003 µg/mL (≈ 0.00788 µM)
[12]
  MIC: 0.07 ± 0.01 µg/mL (≈ 0.138 µM)
[13]
  MIC: 62.2 ± 2.92 µg/mL (≈ 123 µM)
[14]
  survival efficiency compared with FLC: significantly more efficient than FLC
  survival compared with the non-treated group: significant longer survival
  activity on fungal burden of the kidney compared to FLC: significantly higher when compared to FLC
  fungal burden of the kidney: significantly decreased
[16]
  MIC: 6.71 ± 0.06 µg/mL (≈ 13.2 µM)
[17]
  MIC: 25.6 ± 24.8 µg/mL (≈ 50.5 µM)
[18]
  MIC: 6.19 ± 0.8 µg/mL (≈ 12.2 µM)

## C[C@@H](n1ccc2nc(-c3ccc(C#N)cc3)cn2c1=O)[C@](O)(Cn1cncn1)c1ccc(F)cc1F [Compound 34, 6-[(1R,2R)-2-(2,4-Difluorophenyl)-2-hydroxy-1-methyl-3-(1H-1,2,4-triazol-1-yl)propyl]-2-(4-cyanophenyl)imidazo[1,2-c]pyrimidin-5-one]
[1]
  MIC: < 0.001 µg/mL
[5]
  MIC: 2.43 ± 0.19 µg/mL (≈ 4.98 µM)
[19]
  effectiveness against the promastigote stage of L. Mexicana, in words: effective
  IC50: 2.8 ± 0.2 µM
[22]; 14 days, p<0.01
  survival: did survive significantly longer
[22]; p<0.05
  activity compared with compounds 29 and 35: significantly more active than compounds 29 and 35
  fungal burden of the kidney: significantly reduced
[23]
  IC50: 25 µM
[6]
  MIC: 6.44 ± 0.17 µg/mL (≈ 13.2 µM)
[8]
  MIC: 0.45 ± 0.31 µg/mL (≈ 0.923 µM)
[20]
  MIC: 0.002 ± 0.001 µg/mL (≈ 0.0041 µM)
[10]
  MIC: 0.64 ± 0.27 µg/mL (≈ 1.31 µM)
[11]
  MIC: 0.003 ± 0.001 µg/mL (≈ 0.00615 µM)
[21]
  MIC: 0.002 ± 0.001 µg/mL (≈ 0.0041 µM)
[12]
  MIC: 0.06 ± 0.01 µg/mL (≈ 0.123 µM)
[13]
  MIC: 38.4 ± 13.1 µg/mL (≈ 78.7 µM)
[14]
  survival efficiency compared with FLC: significantly more efficient than FLC
  survival compared with the non-treated group: significant longer survival
  activity on fungal burden of the kidney compared to FLC: significantly higher when compared to FLC
  fungal burden of the kidney: significantly decreased
[16]
  MIC: 6.27 ± 0.3 µg/mL (≈ 12.9 µM)
[17]
  MIC: 12.6 ± 4.05 µg/mL (≈ 25.9 µM)
[18]
  MIC: 5.98 ± 0.62 µg/mL (≈ 12.3 µM)
